Experimental data taken from patent US8802597B2, “Herbicidal pyrimidines” (E I du Pont de Nemours and Company, priority 2003, dated 2014).
Read-outs that look alike come from different tables or passages of the source.

Columns and labels:
Assay type in all cases: in vivo
[1] = system: chickweed (Stellaria media); experiment: Test C postemergence; conditions: Stellaria media, post-emergence
Procedure, shortened: (§1)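 Test compounds, formulated in a non-phytotoxic solvent mix with surfactant, were applied to freshly planted seeds and, at the same time, to emerged plants at 1- to 4-leaf stage (2 to 18 cm). After 12 to 14 days in the greenhouse, response was scored visually versus controls, 0 = no effect, 100 = complete control.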

[2] = system: yellow nutsedge (Cyperus esculentus); experiment: Test C pre/postemergence; conditions: Cyperus; for pest or weed control at 31 g/ha: 31 g ai/ha; for pest or weed control at 62 g/ha: 62 g ai/ha
Procedure, shortened: as §1

[3] = system: common ragweed (Ambrosia elatior); experiment: Test C pre/postemergence; conditions: Ambrosia artemisiifolia; for pest or weed control at 31 g/ha: 31 g ai/ha; for pest or weed control at 62 g/ha: 62 g ai/ha
Procedure, shortened: as §1

[4] = system: woolly cupgrass (Eriochloa villosa); experiment: Test C pre/postemergence; conditions: Eriochloa villosa; for pest or weed control at 31 g/ha: 31 g ai/ha; for pest or weed control at 62 g/ha: 62 g ai/ha
Procedure, shortened: as §1

[5] = system: bermudagrass (Cynodon dactylon); experiment: Test C pre/postemergence; conditions: Cynodon dactylon; for pest or weed control at 31 g/ha: 31 g ai/ha; for pest or weed control at 62 g/ha: 62 g ai/ha; for pest or weed control at 125 g/ha: 125 g ai/ha
Procedure, shortened: as §1

[6] = system: pigweed (Amaranthus retroflexus); experiment: Test C pre/postemergence; conditions: Amaranthus retroflexus; for pest or weed control at 31 g/ha: 31 g ai/ha; for pest or weed control at 62 g/ha: 62 g ai/ha
Procedure, shortened: as §1

[7] = system: goosegrass (Eleusine indica); experiment: Test C pre/postemergence; conditions: Eleusine indica; for pest or weed control at 31 g/ha: 31 g ai/ha; for pest or weed control at 62 g/ha: 62 g ai/ha; for pest or weed control at 125 g/ha: 125 g ai/ha
Procedure, shortened: as §1

[8] = system: velvetleaf (Abutilon theophrasti); experiment: Test C pre/postemergence; conditions: Abutilon theophrasti; for pest or weed control at 31 g/ha: 31 g ai/ha; for pest or weed control at 62 g/ha: 62 g ai/ha
Procedure, shortened: as §1

[9] = system: crabgrass (Digitaria sanguinalis); experiment: Test A pre/postemergence; conditions: Digitaria sanguinalis, 240 h, read-out: Plant response rating, Crabgrass; for pest or weed control at 125 g/ha: 125 g ai/ha; for pest or weed control at 500 g/ha: 500 g ai/ha
Procedure, shortened: (§2)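 Soil: loam blended with sand. Formulation: non-phytotoxic solvent mixture with surfactant. Timing: preemergence soil spray plus concurrent postemergence spray (plants 2–10 cm, 1–2 leaves). Readout: visual injury versus untreated controls at ~10 days, 0–100.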

[10] = system: barnyardgrass (Echinochloa crus-galli); experiment: Test A pre/postemergence; conditions: Echinochloa crus-galli, 240 h, read-out: Plant response rating, Barnyardgrass; for pest or weed control at 125 g/ha: 125 g ai/ha; for pest or weed control at 500 g/ha: 500 g ai/ha
Procedure, shortened: as §2

[11] = post-emergence, Postemergence, read-out: Plant response rating (scale of 0 to 100), Nutsedge, Yellow
[12] = pre-emergence, Preemergence, scale 0 to 100, 0 no effect, 100 complete control, read-out: Plant response rating, Nutsedge, Yellow
[13] = post-emergence, Postemergence, read-out: Plant response rating (scale of 0 to 100), Ragweed
[14] = pre-emergence, Preemergence, scale 0 to 100, 0 no effect, 100 complete control, read-out: Plant response rating, Ragweed
[15] = post-emergence, Postemergence, read-out: Plant response rating (scale of 0 to 100), Cupgrass, Woolly
[16] = pre-emergence, Preemergence, scale 0 to 100, 0 no effect, 100 complete control, read-out: Plant response rating, Cupgrass, Woolly
[17] = post-emergence, Postemergence, scale 0 to 100 (0 no effect, 100 complete control), read-out: Bermudagrass plant response rating
[18] = pre-emergence, Preemergence, scale 0 to 100, 0 no effect, 100 complete control, read-out: Plant response rating, Bermudagrass
[19] = post-emergence, Postemergence, read-out: Plant response rating (scale of 0 to 100), Pigweed
[20] = pre-emergence, Preemergence, scale 0 to 100, 0 no effect, 100 complete control, read-out: Plant response rating, Pigweed
[21] = post-emergence, Postemergence, read-out: Plant response rating (scale of 0 to 100), Goosegrass
[22] = pre-emergence, Preemergence, scale 0 to 100, 0 no effect, 100 complete control, read-out: Plant response rating, Goosegrass
[23] = post-emergence, Postemergence, read-out: Plant response rating (scale of 0 to 100), Velvetleaf
[24] = pre-emergence, Preemergence, scale 0 to 100, 0 no effect, 100 complete control, read-out: Plant response rating, Velvetleaf
[25] = post-emergence, Postemergence, 0 to 100 scale (0 no effect, 100 complete control)
[26] = pre-emergence, Preemergence, 0 to 100 scale where 0 is no effect and 100 is complete control, approximately ten days

Nc1nc(C2CC2)nc(C(=O)OCc2ccccc2)c1Cl [Compound 78, phenylmethyl 6-amino-5-chloro-2-cyclopropyl-4-pyrimidinecarboxylate]
pest or weed control at 31 g/ha ([1]; 31 g ai/ha, read-out: Plant response rating (scale of 0 to 100), Chickweed): 0% | pest or weed control at 62 g/ha ([1]; 62 g ai/ha, read-out: Plant response rating (scale of 0 to 100), Chickweed): 0% | pest or weed control at 250 g/ha ([1]; 250 g ai/ha, scale 0 to 100, read-out: Plant response rating, Chickweed): 70% | pest or weed control at 31 g/ha [2, 11]: 0% | pest or weed control at 62 g/ha [2, 11]: 0% | pest or weed control at 125 g/ha ([2]; post-emergence, Postemergence, 125 g ai/ha, scale 0 to 100 (0 no effect, 100 complete control), read-out: Nutsedge, Yellow plant response rating): 0% | pest or weed control at 250 g/ha ([2]; post-emergence, Postemergence, 250 g ai/ha, scale 0 to 100, read-out: Plant response rating, Nutsedge, Yellow): 0% | pest or weed control at 16 g/ha ([2]; pre-emergence, Preemergence, 16 g ai/ha, scale 0 to 100, 0 no effect, 100 complete control, read-out: Plant response rating, Nutsedge, Yellow): 0% | pest or weed control at 31 g/ha [2, 12]: 0% | pest or weed control at 62 g/ha [2, 12]: 0% | pest or weed control at 31 g/ha [3, 13]: 70% | pest or weed control at 62 g/ha [3, 13]: 85% | pest or weed control at 125 g/ha ([3]; post-emergence, Postemergence, 125 g ai/ha, scale 0 to 100 (0 no effect, 100 complete control), read-out: Ragweed plant response rating): 95% | pest or weed control at 250 g/ha ([3]; post-emergence, Postemergence, 250 g ai/ha, scale 0 to 100, read-out: Plant response rating, Ragweed): 100% | pest or weed control at 16 g/ha ([3]; pre-emergence, Preemergence, 16 g ai/ha, scale 0 to 100, 0 no effect, 100 complete control, read-out: Plant response rating, Ragweed): 10% | pest or weed control at 31 g/ha [3, 14]: 65% | pest or weed control at 62 g/ha [3, 14]: 80% | pest or weed control at 31 g/ha [4, 15]: 50% | pest or weed control at 62 g/ha [4, 15]: 55% | pest or weed control at 250 g/ha ([4]; post-emergence, Postemergence, 250 g ai/ha, scale 0 to 100, read-out: Plant response rating, Cupgrass, Woolly): 90% | pest or weed control at 16 g/ha ([4]; pre-emergence, Preemergence, 16 g ai/ha, scale 0 to 100, 0 no effect, 100 complete control, read-out: Plant response rating, Cupgrass, Woolly): 0% | pest or weed control at 31 g/ha [4, 16]: 0% | pest or weed control at 62 g/ha [4, 16]: 0% | pest or weed control at 125 g/ha ([4]; pre-emergence, Preemergence, 125 g ai/ha, scale 0 to 100, read-out: Plant response rating, Cupgrass, Woolly): 10% | pest or weed control at 31 g/ha ([5]; post-emergence, Postemergence, read-out: Plant response rating (scale of 0 to 100), Bermudagrass): 60% | pest or weed control at 62 g/ha [5, 17]: 60% | pest or weed control at 125 g/ha [5, 17]: 60% | pest or weed control at 250 g/ha ([5]; post-emergence, Postemergence, 250 g ai/ha, scale 0 to 100, read-out: Plant response rating, Bermudagrass): 65% | pest or weed control at 16 g/ha ([5]; pre-emergence, Preemergence, 16 g ai/ha, scale 0 to 100, 0 no effect, 100 complete control, read-out: Plant response rating, Bermudagrass): 0% | pest or weed control at 31 g/ha [5, 18]: 0% | pest or weed control at 62 g/ha [5, 18]: 0% | pest or weed control at 125 g/ha ([5]; pre-emergence, Preemergence, scale 0 to 100, read-out: Plant response rating, Bermudagrass): 20% | pest or weed control at 31 g/ha [6, 19]: 50% | pest or weed control at 62 g/ha [6, 19]: 80% | pest or weed control at 125 g/ha ([6]; post-emergence, Postemergence, 125 g ai/ha, scale 0 to 100 (0 no effect, 100 complete control), read-out: Pigweed plant response rating): 95% | pest or weed control at 250 g/ha ([6]; post-emergence, Postemergence, 250 g ai/ha, scale 0 to 100, read-out: Plant response rating, Pigweed): 100% | pest or weed control at 16 g/ha ([6]; pre-emergence, Preemergence, 16 g ai/ha, scale 0 to 100, 0 no effect, 100 complete control, read-out: Plant response rating, Pigweed): 55% | pest or weed control at 31 g/ha [6, 20]: 60% | pest or weed control at 62 g/ha [6, 20]: 70% | pest or weed control at 31 g/ha [7, 21]: 0% | pest or weed control at 62 g/ha [7, 21]: 0% | pest or weed control at 125 g/ha ([7]; post-emergence, Postemergence, scale 0 to 100 (0 no effect, 100 complete control), read-out: Goosegrass plant response rating): 40% | pest or weed control at 250 g/ha ([7]; post-emergence, Postemergence, 250 g ai/ha, scale 0 to 100, read-out: Plant response rating, Goosegrass): 50% | pest or weed control at 16 g/ha ([7]; pre-emergence, Preemergence, 16 g ai/ha, scale 0 to 100, 0 no effect, 100 complete control, read-out: Plant response rating, Goosegrass): 0% | pest or weed control at 31 g/ha [7, 22]: 0% | pest or weed control at 62 g/ha [7, 22]: 0% | pest or weed control at 125 g/ha ([7]; pre-emergence, Preemergence, scale 0 to 100, read-out: Plant response rating, Goosegrass): 0% | pest or weed control at 31 g/ha [8, 23]: 50% | pest or weed control at 62 g/ha [8, 23]: 80% | pest or weed control at 125 g/ha ([8]; post-emergence, Postemergence, 125 g ai/ha, scale 0 to 100 (0 no effect, 100 complete control), read-out: Velvetleaf plant response rating): 95% | pest or weed control at 250 g/ha ([8]; post-emergence, Postemergence, 250 g ai/ha, scale 0 to 100, read-out: Plant response rating, Velvetleaf): 100% | pest or weed control at 16 g/ha ([8]; pre-emergence, Preemergence, 16 g ai/ha, scale 0 to 100, 0 no effect, 100 complete control, read-out: Plant response rating, Velvetleaf): 10% | pest or weed control at 31 g/ha [8, 24]: 55% | pest or weed control at 62 g/ha [8, 24]: 70% | pest or weed control at 125 g/ha [9, 25]: 70% | pest or weed control at 500 g/ha [9, 25]: 80% | pest or weed control at 125 g/ha [9, 26]: 55% | pest or weed control at 500 g/ha [9, 26]: 70% | pest or weed control at 125 g/ha [10, 25]: 80% | pest or weed control at 500 g/ha [10, 25]: 90% | pest or weed control at 125 g/ha [10, 26]: 45% | pest or weed control at 500 g/ha [10, 26]: 75%
